Laboratory results from paper PMC9030932, “Development of Dibenzothiazepine Derivatives as Multifunctional Compounds for Neuropathic Pain” (Pharmaceuticals, 2022).
Marks after values point to notes of the source that are not given here.

How the values were obtained:
[1] = target: T1, human μ-opioid receptor (OPRM1) (Homo sapiens, UniProt P35372); assay: Intracellular calcium mobilization (FLIPR Tetra), HEK-hMOR agonism; type: cell-based; conditions: HEK-hMOR calcium mobilization
T1 construct: host or cells: HEK293 (constitutive expression)

mMOR = test system: mMOR; set-up: method as in earlier work; conditions: ref 21 (Gassaway et al.); cited from earlier work
hMOR = test system: hMOR; set-up: method as in earlier work; conditions: ref 21 (Gassaway et al.); cited from earlier work
hOPRM1 receptor = target: T2, hOPRM1 receptor (Homo sapiens, UniProt P35372); assay: PathHunter CHO-K1 OPRM1 β-arrestin recruitment assay; type: cell-based
T2 construct: host or cells: CHO-K1

[2] = target: T3, human κ-opioid receptor (OPRK1) (Homo sapiens, UniProt P41145); assay: Intracellular calcium mobilization (FLIPR Tetra), HEK-hKOR agonism; type: cell-based
T3 construct: host or cells: HEK293 (constitutive expression)
Experimental: Intracellular calcium mobilization was measured by using FLIPR Tetra System (Molecular Devices, Sunnyvale, CA, USA) in accordance with manufacturer’s instruction. […] Subsequently, the plate was transferred to the FLIPR tetra system for treating 50 μL of the 5× compounds diluted in loading buffer and reading intracellular calcium mobilization. The final concentration of DMSO was 0.1%. […] A dose response curve was generated with the changes in Relative Fluorescence Units (∆RFU) versus Log10 dose.
Experimental details for Biology
Cell culture. HEK293 cells stably expressing human DA transporter (HEK-hDAT), human NE transporter (HEK-hNET) and human serotonin transporter (HEK-hSERT) were kindly provided by Professor Bryan Roth (University of North Carolina at Chapel Hill). And HEK293 cells constitutively expressing human κ- or μ- opioid receptor (HEK-hKOR_NM000912 or HEK-hMOR_NM000914) were constructed by Professor Ki Duk Park (in Korea Institute of Science […]
Europins DiscoveRx (Fremont, CA, USA). Cells were mainta ined in Dulbecco's modified Eagle's medium (HyClone, Logan, UT, USA) supplemented with 10%(v/v) fetal bovine serum (FBS, HyClone, Logan, UT, USA), penicillin (100 U/mL), and streptomycin (100 μg/mL) in the […]
for HEK-hDAT, HEK-hNET, HEK-hSERT, HEK-hKOR and HEK-hMOR respectively) in a humidified 5% CO2 incubator at 37 °C. In case of both HEK-hKOR and HEK-hMOR, cells were additionally maintained in 0.2 mg/mL hygromycin B, 1 μg/mL puromycin B, 1× non-essential amino acids. The cells were subcultured every 3-4 days. […]

T1 sequence (P35372 whole entry): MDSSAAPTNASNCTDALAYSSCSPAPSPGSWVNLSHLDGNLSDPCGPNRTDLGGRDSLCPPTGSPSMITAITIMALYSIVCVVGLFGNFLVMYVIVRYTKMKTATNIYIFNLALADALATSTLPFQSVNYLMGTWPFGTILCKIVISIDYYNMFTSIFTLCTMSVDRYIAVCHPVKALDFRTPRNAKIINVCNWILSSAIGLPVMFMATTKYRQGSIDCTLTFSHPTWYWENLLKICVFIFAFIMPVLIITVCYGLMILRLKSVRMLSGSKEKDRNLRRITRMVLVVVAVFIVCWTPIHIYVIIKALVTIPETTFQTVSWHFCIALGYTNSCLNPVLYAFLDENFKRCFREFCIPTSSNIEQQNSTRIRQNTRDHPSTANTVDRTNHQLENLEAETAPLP
T3 sequence (P41145 whole entry): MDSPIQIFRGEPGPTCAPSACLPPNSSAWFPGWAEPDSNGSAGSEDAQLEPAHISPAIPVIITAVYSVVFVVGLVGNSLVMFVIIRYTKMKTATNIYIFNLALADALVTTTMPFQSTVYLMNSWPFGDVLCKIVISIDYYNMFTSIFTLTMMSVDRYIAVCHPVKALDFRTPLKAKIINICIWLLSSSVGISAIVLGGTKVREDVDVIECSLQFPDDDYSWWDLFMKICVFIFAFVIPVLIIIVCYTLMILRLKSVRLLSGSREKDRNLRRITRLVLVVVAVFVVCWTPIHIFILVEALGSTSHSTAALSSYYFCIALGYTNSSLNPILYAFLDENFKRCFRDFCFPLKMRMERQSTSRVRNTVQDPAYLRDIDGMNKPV
T2 sequence (P35372 whole entry): as the sequence (P35372 whole entry) above

In the case of CN1c2ccccc2C(NCCCCCCC(=O)O)c2ccc(Cl)cc2S1(=O)=O (stereo not shown) [Tianeptine, reference compound], the “% Stimulation at 10 μM, OPRM1 Agonism against DAMGO (3.9 μM)” value ([1]; 10 μM, normalized to Emax of DAMGO at 3.9 μM) is listed as under 10% ^b, the “agonistic activity at the μ-opioid receptor” value ([1]; compared to DAMGO) is listed as “did not show appreciable biological activities” and the EC50 (mMOR) is listed as 641 nM. The EC50 (hMOR) was 194 nM, the EC50 (hOPRM1 receptor) was over 5000 nM and the “agonistic activity at the κ-opioid receptor” value ([2]; HEK-hKOR calcium mobilization) was “did not show appreciable biological activities”. The activation at 10 µM ([2]; read-out: % Stimulation at 10 μM, OPRK1 Agonism against DynorphinA (370 nM)) was under 10%.
